In patent US20130064812A1, “COMBINATION THERAPIES FOR HEMATOLOGIC MALIGNANCIES” (Gilead Calistoga LLC, priority 2011, published 2013):

Tests used:
[1] = system: T-ALL and B-ALL leukemic cell lines; test: ALL cell lines: AlamarBlue viability and Akt phosphorylation; type: cell-based; settings: for cellular viability in ALL cell lines: 48 hours
Experimental: Viability assays of cell lines were performed using the AlamarBlue assay (Invitrogen). Cells (1×10^6 per well) in a volume of 100 μL were placed in a 96-well flat-bottom plate and the compound of formula I (100 μL per well at 2× final concentration) or medium alone was added to the plates. All were performed in quadruplicate. Cells were incubated for fixed times (48 hours). After the incubation, 10 μL AlamarBlue® was added to each well. Cells were incubated for 4 hours and the optical density at 530-560 nm was obtained using a SpectraMax® M5 plate reader 2001. Cell viability was expressed as a percentage of absorption between treated cells/control sample.

[2] = system: T47D and HS-578T cell lines; test: Proliferation of breast cancer cell lines (AlamarBlue); type: cell-based; settings: 48 hrs and 72 hrs
Experimental: T47D and HS-578T cell lines were grown in the presence of serum plus the indicated concentrations of the compound of formula I. Proliferation was measured in triplicate wells by AlamarBlue® assay (Invitrogen) 96-well plates.

CLL [3] = test: ALC and lymphadenopathy in a patient with CLL; type: in vivo, human; settings: 1 cycle (28 days) oral
Experimental: This example provides data relating to the concentration of absolute lymphocyte count (ALC) in the blood of a patient with CLL after 1 cycle (28 days) of treatment with oral administration of the compound of formula I. The blood ALC concentration was measured over a period of 4 weeks after completion of one cycle of treatment. A 55% decrease in lymphocytosis and a 38% decrease in lymphadenopathy as a result of treatment were observed. A marked decrease in ALC concentration is observed between week 1 and week 2, FIG. 13.

caspase 3 and PARP = test: Cleavage of caspase 3 and PARP (immunoblot, Meso Scale plates); type: cell-based; settings: 5 or 10 μM, 24 hrs
Experimental: FIGS. […]
Thereafter, cells were lysed and sized-fractionated and immunoblotted with antibody directed against FLIP, FIG. 29. Additionally, whole cell lysates were added to MDS (Meso Scale Diagnostics) multi-spot 96-well 4 spot plates coated with Total caspase-3, cleaved caspase-3, cleaved PARP, and BSA. Proteins were detected with antibodies labeled with SULFO-TAG reagent and quantified.

AKT and ERK pathways = test: AKT and ERK pathway phosphorylation in MM cells (immunoblot); type: cell-based, human
Description: Whole-cell lysates were subjected to sodium dodecyl sulfate-polyacrylamide gel electrophoresis (SDS-PAGE) separation, transferred to Pure Nitrocellulose membranes (Bio-Rad Laboratories, Hercules, Calif.), and immunoblotted with anti-AKT, phospho(p)-AKT (Ser473, Thr 308), ERK1/2, P-ERK1/2, P-PDK1, STAT, P-STAT, P-FKRHL, P-70S6K, LC3, and PI3K/p110α Abs (Cell Signaling Danvers, Mass.); anti-p110β, PI3K/p110δ, Glyceraldehyde 3-phosphate dehydrogenase (GAPDH), α-tubulin, and actin Abs (Santa Cruz Biotechnology, CA); and anti-p110γ Ab (Alexis, San Diego, Calif.): and anti-LC3 Ab (Abgent, San Diego, Calif.).
Actin Ab was used as a loading control. […] Whole cell lysates were subjected to immunoblotting using AKT, P-AKT (Ser473 and Thr308), ERK1/2, P-ERK1/2, P-PDK1, and P-FKRHL antibodies. α-tubulin is used as a loading control.

FL cell lines = test: PI3K signaling and apoptosis in follicular lymphoma cell lines; type: cell-based
CLL [4] = test: Previous single-agent study in patients with CLL; type: in vivo, human; settings: single-agent therapy
CLL cells = type: cell-based, human
Experimental: (§1) This pro-survival effect was abrogated by the compound of formula I, which reduced CLL cell viability to 85±3% of controls at 48 hours (mean±SEM, n=15, *P<0.05). […] BCR cross-linking induces secretion of the chemokines CCL3 and CCL4 by CLL cells, which was quantified in CLL supernatants by ELISA.
(§2) The CCL3 concentrations were reduced by the compound of formula I from 943±535 pg/mL to 156±8 pg/mL, and the CCL4 concentrations from 7433±4463 pg/mL to 316±53 pg/mL (mean±SEM, n=5, *P<0.05).

CLL-NLC co-cultures = type: cell-based, human
Experimental: as §1, §2

CLL patients = test: Samples from CLL patients undergoing treatment (phospho-flow, plasma cytokines); type: in vivo, human
[5] = system: CLL cells with StromaNKTert; test: Viability / apoptosis of stroma-exposed CLL cells (Annexin V/PI); type: cell-based, human
Experimental: CLL cells were cultured under standardized conditions on stromal cell lines or primary NLC. Briefly, stromal cells were seeded one day prior to each experiment onto 24-well plates (Corning Life Sciences) at a concentration of 3×10^5 cells/mL/well and incubated at 37° C. in 5% CO2. Stromal cell confluence was confirmed by phase contrast microscopy, and CLL cells were then added onto the stromal cell layer at a concentration of 3×10^6 cells/mL. Cultures were then treated with compounds for the specified time periods. CLL cells were removed for analysis by gentle pipetting with media, and were then washed in PBS prior to analysis. A 24-hour co-culture time point was used unless otherwise indicated.
CLL cell viability was determined by analysis of Annexin V-FITC (BD Biosciences, San Diego, Calif.) and Propidium Iodine (PI) (Sigma) by FACS.
To determine whether PI3K inhibition increased the sensitivity of stroma-exposed CLL cells by increasing priming, PB-derived CLL cells cultured with or without StromaNKTert cells for 24 hours and were examined using Annexin-PI and BH3 profiling. […] Stromal co-culture of four CLL patient samples led to protection from apoptosis in untreated cells.

Experimental for patient MM cells: All MM cell lines were cultured in RPMI1640 medium. Bone marrow stromal cells (BMSCs) were cultured in Dulbecco's modification of Eagle's medium (DMEM) (Sigma) containing 15% fetal bovine serum, 2 mM L-glutamine (Life Technologies), 100 U/mL penicillin, and 100 μg/mL streptomycin (Life Technologies). […] Patient MM and BM cells were obtained from BM samples after informed consent was obtained per the Declaration of Helsinki and approval by the Institutional Review Board of the Dana-Farber Cancer Institute (Boston, Mass.). BM mononuclear cells were separated using Ficoll-Paque™ density sedimentation, and plasma cells were purified (>95% CD138+) by positive selection with anti-CD138 magnetic activated cell separation micro beads (Miltenyi Biotec, Auburn, Calif.). Tumor cells were also purified from the BM of MM patients using the RosetteSep negative selection system (StemCell Technologies, Vancouver, BC, Canada).
Data represent mean±SD viability, assessed by MTT assay of triplicate cultures, expressed as percentage of untreated controls.

Question: `CC[C@H](Nc1ncnc2[nH]cnc12)c1nc2cccc(F)c2c(=O)n1-c1ccccc1` [Compound I, 5-fluoro-3-phenyl-2-[1-(9H-purin-6-ylamino)-propyl]-3H-quinazolin-4-one] was tested. Which “Akt phosphorylation in ALL cell lines” value [1] did it give?
Answer: reduction in Akt phosphorylation

Question: What about the “cellular viability in ALL cell lines” value [1] of the same compound?
Answer: significant reduction in cell viability in all six cell lines

Question: And the “cellular viability in ALL cell lines” value ([1]; listed as compound I)?
Answer: substantial reduction in cellular viability

Question: And the “proliferation of breast cancer cell lines” value [2]?
Answer: reduces cellular proliferation of two breast cancer cell lines

Question: What about the “proliferation of breast cancer cell lines” value ([2]; listed as compound of formula I) of the same compound?
Answer: inhibits proliferation of breast cancer cell lines

Question: What about the decrease in lymphadenopathy (CLL [3]) of the same compound?
Answer: 38%

Question: What about the decrease in lymphocytosis (CLL [3]) of the same compound?
Answer: 55%

Question: What about the “cleavage of caspase 3 and PARP” value (caspase 3 and PARP) of the same compound?
Answer: dose dependent response in the cleavage of caspase 3 and PARP

Question: What about the “phosphorylation of PDK-1 and FKHRL” value (AKT and ERK pathways; INA-6 and LB, 0-6 hours) of the same compound?
Answer: significantly inhibited phosphorylation of upstream PDK-1 and downstream FKHRL

Question: What about the “phosphorylation of AKT or ERK, MM.1S cells” value (AKT and ERK pathways; low expression of P110δ, 0-5.0 μM, 6 hours) of the same compound?
Answer: did not affect phosphorylation of AKT or ERK

Question: And the “phosphorylation of AKT and ERK1/2, INA-6 cells” value (AKT and ERK pathways; p110δ positive, 12 h)?
Answer: significantly blocked phosphorylation of AKT and ERK1/2

Question: What about the “pAkt, Akt, pS6 and S6 in FL cell lines” value (FL cell lines) of the same compound?
Answer: reduction in the production of pAkt, Akt, pS6 and S6

Question: And the “cleavage of PARP and Caspase-3 in FL cell lines” value (FL cell lines; 24 hours, 0.1 μM and 0.5 μM)?
Answer: Cleavage of PARP and Caspase-3 is observed

Question: And the “fraction of patients with CLL with lymphocytosis” value (CLL [4])?
Answer: ⅔

Question: And the lymphocyte redistribution (CLL [4])?
Answer: transient lymphocytosis in patients with CLL

Question: What about the “supernatant CCL3 concentration” value (CLL cells; BCR cross-linking, from 4060±1392 pg/mL, mean±SEM, n=6) of the same compound?
Answer: 2901 ± 1220 pg/mL

Question: And the “supernatant CCL4 level” value (CLL cells; BCR cross-linking, from 5721±1789 pg/mL, mean±SEM, n=6)?
Answer: 3223 ± 1311 pg/mL

Question: What about the “CLL cell viability, % of controls” value (CLL cells; human, 48 h) of the same compound?
Answer: 85±3%

Question: And the CXCL13 level (CLL-NLC co-cultures; CLL-NLC co-cultures, from 151±35, n=4)?
Answer: 70 ± 27 pg/mL

Question: What about the CCL3 concentration (CLL-NLC co-cultures; CLL-NLC co-cultures, from 943±535 pg/mL, n=5) of the same compound?
Answer: 156 ± 8 pg/mL

Question: What about the CCL4 concentration (CLL-NLC co-cultures; CLL-NLC co-cultures, from 7433±4463 pg/mL, n=5) of the same compound?
Answer: 316 ± 53 pg/mL

Question: And the “CLL cell viability, % of untreated controls” value (CLL-NLC co-cultures; human, 48 h)?
Answer: 64±6%

Question: What about the “mean plasma level of CCL3” value (CLL patients; Day28+, baseline 186 pg/mL, 14 CLL patients) of the same compound?
Answer: 29 pg/mL

Question: What about the “mean plasma level of CXCL13” value (CLL patients; Day28+, baseline 316 pg/mL, 14 CLL patients) of the same compound?
Answer: 40 pg/mL

Question: And the “mean plasma level of TNFα” value (CLL patients; Day28+, baseline 104, 14 CLL patients)?
Answer: 29 pg/mL

Question: And the “mean plasma level of CCL4” value (CLL patients; Day28+, baseline 303, 14 CLL patients)?
Answer: 70 pg/mL

Question: What about the “mean plasma level of CCL22” value (CLL patients; Day28+, baseline 1067, 14 CLL patients) of the same compound?
Answer: 533 pg/mL

Question: What about the “down-regulation of pAkt(T308) in peripheral CLL cells” value (CLL patients; patients on treatment, n=12) of the same compound?
Answer: > 90%

Question: And the “apoptosis in stroma-exposed CLL cells” value ([5]; 10 μM, untreated less than 10%)?
Answer: More than 40%

Question: What about the “apoptosis versus control in the absence of stroma” value ([5]; four patient samples, 24 hours) of the same compound?
Answer: induce more apoptosis than the control

Question: And the “apoptosis versus control in the presence of stroma” value ([5]; four patient samples, 24 hours)?
Answer: induce significantly more apoptosis than the control

Question: What about the “stroma-mediated resistance (CLL cell viability)” value ([5]; two patients, 24 hours, ABT-737 100 nM, compound I 10 μM) of the same compound?
Answer: profound stroma-mediated resistance

Question: And the “sensitivity of CLL cells to ABT-737 in the presence of stroma” value ([5]; two resistant CLL patient samples)?
Answer: restored sensitivity of CLL cells to ABT-737 in the presence of stroma

Question: And the “cytotoxicity against patient MM cells” value (patient MM cells)?
Answer: induced cytotoxicity against patient MM cells
